# Experiments:
# morningglory = assay: Test B pre-/postemergence herbicide test; format: in vivo, Ipomoea coccinea
# In short: (§1)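 Seeds were planted and treated preemergence with compounds formulated in a non-phytotoxic solvent mixture containing surfactant, while plants at the 1- to 4-leaf stage (2 to 18 cm) received postemergence sprays. Flooded paddy plants were grown to the 2-leaf stage. After 13 to 15 days in a greenhouse, injury was visually rated 0–100 against untreated controls.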
# barnyardgrass [1] = assay: Test B flooded paddy test; format: in vivo, Echinochloa crus-galli; settings: 1000 g ai/ha, scale 0 to 100 (0 no effect, 100 complete control)
# In short: (§2)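 Postemergence plants were sprayed with formulated test chemicals at 2 to 18 cm height (1- to 4-leaf stage); paddy species were grown to the 2-leaf stage. After 13 to 15 days in a greenhouse, injury was rated visually against untreated controls on a 0–100 scale (0 = no effect, 100 = complete control).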
# ducksalad = assay: Test B flooded paddy test; format: in vivo, Heteranthera limosa; settings: 1000 g ai/ha, scale 0 to 100 (0 no effect, 100 complete control)
# In short: as §2
# rice = assay: Test B flooded paddy test; format: in vivo, Oryza sativa; settings: 1000 g ai/ha, scale 0 to 100 (0 no effect, 100 complete control)
# In short: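 After treating 2-leaf paddy plants or 2–18 cm postemergence plants (1 to 4 leaves) with formulated chemical, researchers kept them in a greenhouse for 13–15 days. Effects were judged visually versus controls: 0 indicates none, 100 total control.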
# giant foxtail = assay: Test B pre-/postemergence herbicide test; format: in vivo, Setaria faberi
# In short: (§3)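 Flooded paddy rice and barnyardgrass were treated at the 2-leaf stage; upland plantings received compound either on sown seed or on 1- to 4-leaf seedlings. All were kept 13–15 days in a greenhouse and scored visually, 0–100, relative to untreated plants.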
# pigweed = assay: Test B pre-/postemergence herbicide test; format: in vivo, Amaranthus retroflexus
# In short: as §3
# corn = assay: Test B pre-/postemergence herbicide test; format: in vivo, Zea mays
# In short: as §3
# [2] = tested on: small flower umbrella sedge; assay: Test B flooded paddy test; format: in vivo, Cyperus difformis; settings: 1000 g ai/ha, scale 0 to 100 (0 no effect, 100 complete control)
# In short: as §2
# cocklebur = assay: Test B pre-/postemergence herbicide test; format: in vivo, Xanthium strumarium
# In short: as §1
# wild oat = assay: Test B postemergence herbicide test; format: in vivo, Avena fatua
# In short: as §2
# large crabgrass = assay: Test B pre-/postemergence herbicide test; format: in vivo, Digitaria sanguinalis
# In short: as §3
# lambsquarters = assay: Test B pre-/postemergence herbicide test; format: in vivo, Chenopodium album
# In short: as §3
# blackgrass = assay: Test B postemergence herbicide test; format: in vivo, Alopecurus myosuroides
# In short: as §2
# Surinam grass = assay: Test B pre-/postemergence herbicide test; format: in vivo, Urochloa decumbens
# In short: as §3
# wheat = assay: Test B postemergence herbicide test; format: in vivo, Triticum aestivum; design: key to Wheat plant response rating: 0 = no effect, 100 = complete control
# In short: as §2
# barnyardgrass [3] = assay: Test B pre-/postemergence herbicide test; format: in vivo, Echinochloa crus-galli
# In short: as §1
# [4] = 500 g ai/ha; visual rating 0-100, 0 no effect, 100 complete control; preemergence
# [5] = postemergence, 125 g ai/ha; visual rating, scale 0 (no effect) to 100 (complete control)
# [6] = postemergence, 500 g ai/ha; visual rating, scale 0 (no effect) to 100 (complete control)
# [7] = preemergence, 125 g ai/ha; 0 to 100 scale, 0 is no effect, 100 is complete control
# [8] = 125 g ai/ha; 0 = no effect, 100 = complete control; preemergence
# [9] = 125 g ai/ha; visual rating, scale 0 (no effect) to 100 (complete control); postemergence
# [10] = 500 g ai/ha; visual rating, 0 = no effect, 100 = complete control; preemergence
# [11] = postemergence, 500 g ai/ha; scale 0 to 100, 0 is no effect, 100 is complete control
compound,measurement,setting,value
CCn1nc(C(C)(C)C)cc1C(=O)Nc1cccc(SC)c1 [Compound 131],"Plant response rating, Morningglory",morningglory; [4],30
same,Morningglory plant response rating,morningglory; [5],20
same,Morningglory plant response rating,morningglory; [6],60
same,"Plant response rating, Morningglory",morningglory; [7],10
same,Barnyardgrass plant response rating,"barnyardgrass [1]; visual rating, 13 to 15 days",70
same,Ducksalad plant response rating,"ducksalad; visual rating, 13 to 15 days",80
same,Rice plant response rating,"rice; visual rating, 13 to 15 days",60
same,"Plant response rating, Foxtail, Giant",giant foxtail; [4],70
same,"Foxtail, Giant plant response rating",giant foxtail; [5],20
same,"Foxtail, Giant plant response rating",giant foxtail; [6],30
same,"Plant response rating, Foxtail, Giant",giant foxtail; [7],10
same,"Plant response rating, Pigweed",pigweed; [4],100
same,Pigweed plant response rating,pigweed; [5],30
same,Pigweed plant response rating,pigweed; [6],60
same,"Plant response rating, Pigweed",pigweed; [7],100
same,"Plant response rating, Corn",corn; [4],0
same,Corn plant response rating,corn; [5],20
same,Corn plant response rating,corn; [6],20
same,"Plant response rating, Corn",corn; [7],0
same,"Sedge, Umbrella plant response rating","[2]; visual rating, 13 to 15 days",80
same,"Plant response rating, Cocklebur",cocklebur; [4],10
same,Cocklebur plant response rating,cocklebur; [5],70
same,Cocklebur plant response rating,cocklebur; [6],100
same,"Plant response rating, Cocklebur",cocklebur; [7],0
same,"Oat, Wild plant response rating",wild oat; [5],20
same,"Oat, Wild plant response rating",wild oat; [6],20
same,"Plant response rating, Crabgrass, Large",large crabgrass; [4],100
same,"Crabgrass, Large plant response rating",large crabgrass; [5],20
same,"Crabgrass, Large plant response rating",large crabgrass; [6],30
same,"Plant response rating, Crabgrass, Large",large crabgrass; [7],50
same,"Plant response rating, Lambsquarters",lambsquarters; [4],100
same,Lambsquarters plant response rating,lambsquarters; [5],80
same,Lambsquarters plant response rating,lambsquarters; [6],90
same,"Plant response rating, Lambsquarters",lambsquarters; [7],100
same,Blackgrass plant response rating,blackgrass; [5],10
same,Blackgrass plant response rating,blackgrass; [6],20
same,"Plant response rating, Surinam Grass",Surinam grass; [4],60
same,Surinam Grass plant response rating,Surinam grass; [5],20
same,Surinam Grass plant response rating,Surinam grass; [6],60
same,"Plant response rating, Surinam Grass",Surinam grass; [7],10
same,Wheat plant response rating,wheat; [5],10
same,Wheat plant response rating,wheat; [6],20
same,"Plant response rating, Barnyardgrass",barnyardgrass [3]; [4],90
same,Barnyardgrass plant response rating,barnyardgrass [3]; [5],10
same,Barnyardgrass plant response rating,barnyardgrass [3]; [6],50
same,"Plant response rating, Barnyardgrass",barnyardgrass [3]; [7],70
CCn1nc(C(C)(C)C)cc1C(=O)Nc1cc(C(=S)N(C)C)ccc1F [Compound 294],Morningglory plant response rating (0 to 100 scale),morningglory; [8],0
same,Morningglory plant response rating,morningglory; [9],10
same,"Plant response rating, Morningglory",morningglory; [10],20
same,Morningglory plant response rating,morningglory; [11],20
same,Barnyardgrass plant response rating,barnyardgrass [1],90
same,Ducksalad plant response rating,ducksalad,90
same,Rice plant response rating,rice,90
same,"Foxtail, Giant plant response rating (0 to 100 scale)",giant foxtail; [8],90
same,"Foxtail, Giant plant response rating",giant foxtail; [9],30
same,"Plant response rating, Foxtail, Giant",giant foxtail; [10],100
same,"Foxtail, Giant plant response rating",giant foxtail; [11],50
same,Pigweed plant response rating (0 to 100 scale),pigweed; [8],100
same,Pigweed plant response rating,pigweed; [9],30
same,"Plant response rating, Pigweed",pigweed; [10],100
same,Pigweed plant response rating,pigweed; [11],70
same,Corn plant response rating (0 to 100 scale),corn; [8],80
same,Corn plant response rating,corn; [9],10
same,"Plant response rating, Corn",corn; [10],100
same,Corn plant response rating,corn; [11],50
same,"Sedge, Umbrella plant response rating",[2],80
same,Cocklebur plant response rating (0 to 100 scale),cocklebur; [8],90
same,Cocklebur plant response rating,cocklebur; [9],30
same,"Plant response rating, Cocklebur",cocklebur; [10],100
same,Cocklebur plant response rating,cocklebur; [11],30
same,"Oat, Wild plant response rating",wild oat; [9],40
same,"Oat, Wild plant response rating",wild oat; [11],50
same,"Crabgrass, Large plant response rating (0 to 100 scale)",large crabgrass; [8],100
same,"Crabgrass, Large plant response rating",large crabgrass; [9],10
same,"Plant response rating, Crabgrass, Large",large crabgrass; [10],100
same,"Crabgrass, Large plant response rating",large crabgrass; [11],20
same,Lambsquarters plant response rating (0 to 100 scale),lambsquarters; [8],100
same,Lambsquarters plant response rating,lambsquarters; [9],70
same,"Plant response rating, Lambsquarters",lambsquarters; [10],100
same,Lambsquarters plant response rating,lambsquarters; [11],80
same,Blackgrass plant response rating,blackgrass; [9],20
same,Blackgrass plant response rating,blackgrass; [11],60
same,Surinam Grass plant response rating (0 to 100 scale),Surinam grass; [8],100
same,Surinam Grass plant response rating,Surinam grass; [9],20
same,"Plant response rating, Surinam Grass",Surinam grass; [10],100
same,Surinam Grass plant response rating,Surinam grass; [11],40
same,Wheat plant response rating,wheat; [9],30
same,Wheat plant response rating,wheat; [11],40
same,Barnyardgrass plant response rating (0 to 100 scale),barnyardgrass [3]; [8],100
same,Barnyardgrass plant response rating,barnyardgrass [3]; [9],20
same,"Plant response rating, Barnyardgrass",barnyardgrass [3]; [10],100
same,Barnyardgrass plant response rating,barnyardgrass [3]; [11],60
CCn1nc(C(C)(C)C)cc1C(=S)Nc1cc(C(=S)N(C)C)ccc1F [Compound 305],Morningglory plant response rating (0 to 100 scale),morningglory; [8],0
same,Morningglory plant response rating,morningglory; [9],0
same,"Plant response rating, Morningglory",morningglory; [10],0
same,Morningglory plant response rating,morningglory; [11],0
same,Barnyardgrass plant response rating,barnyardgrass [1],90
same,Ducksalad plant response rating,ducksalad,80
same,Rice plant response rating,rice,70
same,"Foxtail, Giant plant response rating (0 to 100 scale)",giant foxtail; [8],80
same,"Foxtail, Giant plant response rating",giant foxtail; [9],20
same,"Plant response rating, Foxtail, Giant",giant foxtail; [10],100
same,"Foxtail, Giant plant response rating",giant foxtail; [11],20
same,Pigweed plant response rating (0 to 100 scale),pigweed; [8],100
same,Pigweed plant response rating,pigweed; [9],0
same,"Plant response rating, Pigweed",pigweed; [10],100
same,Pigweed plant response rating,pigweed; [11],70
same,Corn plant response rating (0 to 100 scale),corn; [8],10
same,Corn plant response rating,corn; [9],70
same,"Plant response rating, Corn",corn; [10],60
same,Corn plant response rating,corn; [11],70
same,"Sedge, Umbrella plant response rating",[2],90
same,Cocklebur plant response rating (0 to 100 scale),cocklebur; [8],50
same,Cocklebur plant response rating,cocklebur; [9],10
same,"Plant response rating, Cocklebur",cocklebur; [10],70
same,Cocklebur plant response rating,cocklebur; [11],10
same,"Oat, Wild plant response rating",wild oat; [9],10
same,"Oat, Wild plant response rating",wild oat; [11],30
same,"Crabgrass, Large plant response rating (0 to 100 scale)",large crabgrass; [8],90
same,"Crabgrass, Large plant response rating",large crabgrass; [9],0
same,"Plant response rating, Crabgrass, Large",large crabgrass; [10],100
same,"Crabgrass, Large plant response rating",large crabgrass; [11],0
same,Lambsquarters plant response rating (0 to 100 scale),lambsquarters; [8],100
same,Lambsquarters plant response rating,lambsquarters; [9],50
same,"Plant response rating, Lambsquarters",lambsquarters; [10],100
same,Lambsquarters plant response rating,lambsquarters; [11],80
same,Blackgrass plant response rating,blackgrass; [9],20
same,Blackgrass plant response rating,blackgrass; [11],30
same,Surinam Grass plant response rating (0 to 100 scale),Surinam grass; [8],80
same,Surinam Grass plant response rating,Surinam grass; [9],0
same,"Plant response rating, Surinam Grass",Surinam grass; [10],100
same,Surinam Grass plant response rating,Surinam grass; [11],20
same,Wheat plant response rating,wheat; [9],0
same,Wheat plant response rating,wheat; [11],10
same,Barnyardgrass plant response rating (0 to 100 scale),barnyardgrass [3]; [8],80
same,Barnyardgrass plant response rating,barnyardgrass [3]; [9],0
same,"Plant response rating, Barnyardgrass",barnyardgrass [3]; [10],90
same,Barnyardgrass plant response rating,barnyardgrass [3]; [11],0
